US20230115274A1, “COMPOUNDS AND COMPOSITIONS FOR TREATING CONDITIONS ASSOCIATED WITH STING ACTIVITY” (IFM Due, Inc., priority 2019, published 2023)
pEC50: −log10 of the molar value.

Target: T1, hSTING (Homo sapiens, UniProt Q86WV6, G230A/H232R/R293Q/R71H)
T1 construct: host or cells: THP1-Dual KO-IFNAR2 cells
Test: STING reporter assay (luciferase) in THP1-Dual KO-IFNAR2 cells stimulated with 2′3′cGAMP
Type: cell-based
Conditions: 2′3′cGAMP 15 μM, 24 h
Description: STING pathway activation by the compounds described herein was measured using THP1-Dual™ cells (KO-IFNAR2).
THP1-Dual™ KO-IFNAR2 Cells (obtained from invivogen) were maintained in RPMI, 10% FCS, 5 ml P/S, 2 mM L-glut, 10 mM Hepes, and 1 mM sodium pyruvate. Compounds were spotted in empty 384 well tissue culture plates (Greiner 781182) by Echo for a final concentration of 0.0017-100 μM. Cells were plated into the TC plates at […], 2×10E6 cells/mL. For activation with STING ligand, 2′3′cGAMP (MW 718.38, obtained from Invivogen), was prepared in Optimem media.
The following solutions were prepared for each 1×384 plate: • Solution A: 2 mL Optimem with one of the following stimuli: • […] • Solution B: 2 mL Optimem with 60 μL Lipofectamine 2000->Incubate 5 min at RT
2 mL of solution A and 2 ml Solution B was mixed and incubated for 20 min at room temperature (RT). 20 uL of transfection solution (A+B) was added on top of the plated cells, with a final 2′3′cGAMP concentration of 15 μM. The plates were then centrifuged immediately at 340 g for 1 minute, after which they were incubated at 37° C., 5% CO2, >98% humidity for 24 h. Luciferase reporter activity was then measured. EC50 values were calculated by using standard methods known in the art.
Luciferase reporter assay: 10 μL of supernatant from the assay was transferred to white 384-plate with flat bottom and squared wells. One pouch of QUANTI-Luc™ Plus was dissolved in 25 mL of water. 100 μL of QLC Stabilizer per 25 mL of QUANTI-Luc™ Plus solution was added. 50 μL of QUANTI-Luc™ Plus/QLC solution per well was then added. Luminescence was measured on a Platereader (e.g., Spectramax I3X (Molecular Devices GF3637001)).
Luciferase reporter activity was then measured. EC50 values were calculated by using standard methods known in the art.

T1 sequence (Q86WV6 whole entry R71H/G230A/H232R/R293Q): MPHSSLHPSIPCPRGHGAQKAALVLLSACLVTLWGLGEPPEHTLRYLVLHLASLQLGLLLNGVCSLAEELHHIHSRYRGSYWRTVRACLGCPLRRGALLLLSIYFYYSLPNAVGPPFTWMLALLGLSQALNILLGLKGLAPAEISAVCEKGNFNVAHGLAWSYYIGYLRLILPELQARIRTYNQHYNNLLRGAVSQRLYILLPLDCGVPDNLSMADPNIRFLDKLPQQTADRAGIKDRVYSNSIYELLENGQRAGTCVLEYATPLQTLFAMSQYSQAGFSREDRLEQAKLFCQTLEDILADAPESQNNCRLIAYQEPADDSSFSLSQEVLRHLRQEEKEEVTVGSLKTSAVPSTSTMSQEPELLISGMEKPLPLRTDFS

pEC50 (class symbols)	pEC50 (numeric bounds)	Structure (SMILES)
6.00 to 6.70		O=C(Nc1cnc(N2CCC3(CC2)CC3)c(Cl)c1)Nc1c[nH]c2cccnc12 [Compound 221, 1-(5-chloro-6-(6-azaspiro[2.5]octan-6-yl)pyridin-3-yl)-3-(1H-pyrrolo[3,2-b]pyridin-3-yl)urea]
6.00 to 6.70		CCc1cc(NC(=O)Nc2c[nH]c3ncc(F)cc23)cnc1N1CCC(F)(F)CC1 [Compound 163, 1-(6-(4,4-difluoropiperidin-1-yl)-5-ethylpyridin-3-yl)-3-(5-fluoro-1H-pyrrolo[2,3-b]pyridin-3-yl)urea]
5.30 to 6.00		Cc1cnc2[nH]cc(NC(=O)Nc3ccc(C4CCC(F)(F)CC4)nc3)c2c1 [Compound 106, 1-(6-(4,4-difluorocyclohexyl)pyridin-3-yl)-3-(5-methyl-1H-pyrrolo[2,3-b]pyridin-3-yl)urea]
	< 4.52	O=C(Nc1cnc(N2CCC(F)(F)CC2)cc1Cl)Nc1c[nH]c2ncc(F)cc12 [Compound 183, 1-(4-chloro-6-(4,4-difluoropiperidin-1-yl)pyridin-3-yl)-3-(5-fluoro-1H-pyrrolo[2,3-b]pyridin-3-yl)urea]
6.00 to 6.70		COc1cc(NC(=O)Nc2c[nH]c3ncc(F)cc23)ncc1C1CCC(F)(F)CC1 [Compound 160, 1-(5-(4,4-difluorocyclohexyl)-4-methoxypyridin-2-yl)-3-(5-fluoro-1H-pyrrolo[2,3-b]pyridin-3-yl)urea]
	< 4.52	Cc1cc(N2CCC(F)(F)CC2)ncc1NC(=O)Nc1c[nH]c2nccc(C)c12 [Compound 179, 1-(6-(4,4-difluoropiperidin-1-yl)-4-methylpyridin-3-yl)-3-(4-methyl-1H-pyrrolo[2,3-b]pyridin-3-yl)urea]
4.00 to 5.30		O=C(Nc1ccc(C2CCC(F)(F)CC2)nc1)Nc1c[nH]c2ncc(-c3cccc(CO)c3)cc12 [Compound 105, 1-(6-(4,4-difluorocyclohexyl)pyridin-3-yl)-3-(5-(3-(hydroxymethyl)phenyl)-1H-pyrrolo[2,3-b]pyridin-3-yl)urea]
4.00 to 5.30		O=C(Nc1cnc(Cl)c(C2CCC(F)(F)CC2)c1)Nc1c[nH]c2cccnc12 [Compound 214, 1-(6-chloro-5-(4,4-difluorocyclohexyl)pyridin-3-yl)-3-(1H-pyrrolo[3,2-b]pyridin-3-yl)urea]
	< 4.52	O=C(Nc1ncc(N2CCC(F)(F)CC2)cc1Cl)Nc1c[nH]c2ncc(F)cc12 [Compound 178, 1-(3-chloro-5-(4,4-difluoropiperidin-1-yl)pyridin-2-yl)-3-(5-fluoro-1H-pyrrolo[2,3-b]pyridin-3-yl)urea]
6.00 to 6.70		CC(=O)n1cc(NC(=O)Nc2ccc(C3CCC(F)(F)CC3)nc2)c2cc(F)cnc21 [Compound 122, 1-(1-acetyl-5-fluoro-1H-pyrrolo[2,3-b]pyridin-3-yl)-3-(6-(4,4-difluorocyclohexyl)pyridin-3-yl)urea]
5.30 to 6.00		O=C(Nc1cnc(N2CCN(CCC(F)(F)F)CC2)c(Cl)c1)Nc1c[nH]c2cccnc12 [Compound 225, 1-(5-chloro-6-(4-(3,3,3-trifluoropropyl)piperazin-1-yl)pyridin-3-yl)-3-(1H-pyrrolo[3,2-b]pyridin-3-yl)urea]
6.00 to 6.70		O=C(Nc1cnc(N2CCC(F)(F)CC2)c(F)c1)Nc1c[nH]c2cccnc12 [Compound 230, 1-(6-(4,4-difluoropiperidin-1-yl)-5-fluoropyridin-3-yl)-3-(1H-pyrrolo[3,2-b]pyridin-3-yl)urea]
6.70 to 7.40		N#Cc1cc(NC(=O)Nc2c[nH]c3ncc(F)cc23)ccc1C1CCC(F)(F)CC1 [Compound 195, 1-(3-cyano-4-(4,4-difluorocyclohexyl)phenyl)-3-(5-fluoro-1H-pyrrolo[2,3-b]pyridin-3-yl)urea]
	< 4.52	Cc1cc(NC(=O)Nc2c[nH]c3ncc(F)cc23)cnc1N1CC2(CC(O)C2)C1 [Compound 156, 1-(5-fluoro-1H-pyrrolo[2,3-b]pyridin-3-yl)-3-(6-(6-hydroxy-2-azaspiro[3.3]heptan-2-yl)-5-methylpyridin-3-yl)urea]
	< 4.52	CS(=O)(=O)n1cc(NC(=O)Nc2ccc(C3CCC(F)(F)CC3)nc2)c2cc(F)cnc21 [Compound 197, 1-(6-(4,4-difluorocyclohexyl)pyridin-3-yl)-3-(5-fluoro-1-(methylsulfonyl)-1H-pyrrolo[2,3-b]pyridin-3-yl)urea]
6.00 to 6.70		Cc1cc(NC(=O)Nc2c[nH]c3ncc(F)cc23)cnc1N1CCC(C)CC1 [Compound 170, 1-(5-fluoro-1H-pyrrolo[2,3-b]pyridin-3-yl)-3-(5-methyl-6-(4-methylpiperidin-1-yl)pyridin-3-yl)urea]
4.00 to 5.30		O=C(Nc1ccc(C2CCC(F)(F)CC2)nc1)Nc1cn(Cc2ccccc2)c2ncc(F)cc12 [Compound 104, 1-(1-benzyl-5-fluoro-1H-pyrrolo[2,3-b]pyridin-3-yl)-3-(6-(4,4-difluorocyclohexyl)pyridin-3-yl)urea]
6.00 to 6.70		Cc1cc(NC(=O)Nc2c[nH]c3ncc(F)cc23)cnc1N1CC2(C1)CC(F)(F)C2 [Compound 162, 1-(6-(6,6-difluoro-2-azaspiro[3.3]heptan-2-yl)-5-methylpyridin-3-yl)-3-(5-fluoro-1H-pyrrolo[2,3-b]pyridin-3-yl)urea]
6.00 to 6.70		O=C(Nc1cnc(N2CCC3(CC2)CC(F)(F)C3)c(Cl)c1)Nc1c[nH]c2cccnc12 [Compound 226, 1-(5-chloro-6-(2,2-difluoro-7-azaspiro[3.5]nonan-7-yl)pyridin-3-yl)-3-(1H-pyrrolo[3,2-b]pyridin-3-yl)urea]
6.00 to 6.70		O=C(Nc1cnc(C2CCC(F)(F)CC2)c(Cl)c1)Nc1c[nH]c2ncc(F)cc12 [Compound 199, 1-(5-chloro-6-(4,4-difluorocyclohexyl)pyridin-3-yl)-3-(5-fluoro-1H-pyrrolo[2,3-b]pyridin-3-yl)urea]
5.30 to 6.00		O=C(Nc1cnc(N2CCC3(CCCCO3)CC2)c(Cl)c1)Nc1c[nH]c2cccnc12 [Compound 215, 1-(5-chloro-6-(1-oxa-9-azaspiro[5.5]undecan-9-yl)pyridin-3-yl)-3-(1H-pyrrolo[3,2-b]pyridin-3-yl)urea]
4.00 to 5.30		CC(C)(C)OC(=O)N1CCCC(n2cc(NC(=O)Nc3ccc(C4CCC(F)(F)CC4)nc3)c3cc(F)cnc32)C1 (centres unmarked) [Compound 102, tert-butyl 3-(3-(3-(6-(4,4-difluorocyclohexyl)pyridin-3-yl)ureido)-5-fluoro-1H-pyrrolo[2,3-b]pyridin-1-yl)piperidine-1-carboxylate]
	< 5.00	O=C(Nc1cnc(N2CC(F)(F)C2)c(Cl)c1)Nc1c[nH]c2cccnc12 [Compound 242, 1-(5-chloro-6-(3,3-difluoroazetidin-1-yl)pyridin-3-yl)-3-(1H-pyrrolo[3,2-b]pyridin-3-yl)urea]
6.00 to 6.70		O=C(Nc1cnc(N2CCN(CC(F)(F)F)CC2)c(Cl)c1)Nc1c[nH]c2cccnc12 [Compound 227, 1-(5-chloro-6-(4-(2,2,2-trifluoroethyl)piperazin-1-yl)pyridin-3-yl)-3-(1H-pyrrolo[3,2-b]pyridin-3-yl)urea]
	< 4.00	O=C(Nc1ccc(C2CCC(O)CC2)nc1)Nc1c[nH]c2ncc(F)cc12 (centres unmarked) [Compound 114, 1-(5-fluoro-1H-pyrrolo[2,3-b]pyridin-3-yl)-3-(6-(4-hydroxycyclohexyl)pyridin-3-yl)urea]

Structure (SMILES)	pEC50 (class symbols)	pEC50 (numeric bounds)
O=C(Nc1cnc(OC2CCC2)c(F)c1)Nc1c[nH]c2ncc(F)cc12 [Compound 111, 1-(6-cyclobutoxy-5-fluoropyridin-3-yl)-3-(5-fluoro-1H-pyrrolo[2,3-b]pyridin-3-yl)urea]	6.00 to 6.70	
